Measurements as given in US12258422B2, “Cyclopeptide and method for preparing the same” (NATIONAL TSING HUA UNIVERSITY, priority 2020, dated 2025).
Values joined by “and” are separate entries in the source; they are usually repeats but may differ in a detail not shown here. Equal entries are not always repeated.

Experiments:
MMP-1 = MMP-1 inhibition test: TNF-α-induced MMP-1 level in skin fibroblasts, ELISA; assay type: cell-based, human; conditions: for inhibition of MMP-1: compared to 3.3 μM of RA (set as 100%); for IC50: Hs68, TNF-α induced, calculated from inhibition rate vs concentration (FIG. 1, FIG. 2); for MMP-1 Conc.: TNF-α 20 ng/mL, Hs68
Method: Matrix Metalloproteinase-1 (MMP-1) is one of collagenases, and is involved in the degradation of the extracellular matrix (ECM). In details, fibroblasts result in the overexpression of MMP-1 after exposure to UV-containing sunlight, so that the ECM is then degraded by MMP-1.
To examine the effect of the cyclopeptide of the present disclosure, a series of MMP-1 inhibition test was conducted.
In this test, test compound and human fibroblasts were co-cultured, and cytokine tumor necrosis factor-α (TNF-α) was added as an inducer to induce the expression of MMP-1 to a high level. Then, the test compound was evaluated for the ability of reducing the MMP-1 level induced by TNF-α.
Test compound: cyclopeptide (III-3) of the present disclosure, in which Q is Cl.
Cell Line: Skin Fibroblast Hs68
First, the seeding of skin fibroblast Hs68 cells onto culture medium dish was conducted overnight, and then different concentrations (0.05 μM, 0.25 μM, 1.25 μM, 2.5 μM and 5 μM) of cyclopeptide (III-3) were added to the skin fibroblast cells for 6 hours, which was further incubated with TNF-α (20 ng/mL) for 42 hours.

hs68 human fibroblasts [1] = assay: Procollagen Type I C-Peptide (PIP) EIA, induction of procollagen secretion; assay type: cell-based
Excerpt: (§1) Type I collagen is the primary component of the skin dermis. Both the quantity and quality of extracellular collagen are primarily related to skin ageing. The present embodiment was examined, by using Procollagen Type I C-Peptide (PIP) EIA Kit, effects of induction of procollagen secretion and cytotoxicity in respect of hs68 human fibroblasts.

hs68 human fibroblasts [2] = assay: Cytotoxicity (cell viability) in anti-aging evaluation; assay type: cell-based; conditions: TGFβ; (sample/control) × 100%
Excerpt: as §1

[3] = as above; assay type: cell-based, human; conditions: human, hs68 human fibroblasts, (sample/control) × 100%
Excerpt: as §1

Compound: N=C(N)NCCC[C@@H]1NC(=O)C2(CCNCC2)NC(=O)[C@@H](Cc2ccccc2)NC(=O)[C@H](CC(=O)O)NC(=O)CNC1=O [III-1]
- inhibition of MMP-1 (MMP-1; 0.05 μM): 12%
- inhibition of MMP-1 (MMP-1; 0.25 μM): 38%
- inhibition of MMP-1 (MMP-1; 1.25 μM): 90%
- IC50 (MMP-1): 700 nM
- MMP-1 Conc. (MMP-1; cyclopeptide 0.05 μM): 422.3 pg/mL
- MMP-1 Conc. (MMP-1; cyclopeptide 0.25 μM): 378.2 pg/mL
- MMP-1 Conc. (MMP-1; cyclopeptide 1.25 μM): 288.0 pg/mL
- MMP-1 Conc. (MMP-1; cyclopeptide 2.5 μM): 271.8 pg/mL

Compound: TGFβ [reference compound]
- Procollagen Type I (hs68 human fibroblasts [1]; TGFβ 0.83 μM): 320 ng/mL
- Cell viability (hs68 human fibroblasts [2]): 95%

Compound: CC1=C(/C=C/C(C)=C/C=C/C(C)=C/C(=O)O)C(C)(C)CCC1 [RA, retinoic acid, reference compound]
- MMP-1 Conc. (MMP-1; RA 3.3 μM (positive control)): 155.9 pg/mL and 271.3 pg/mL

Compound: CC(C)[C@H]1CC[C@H](C)CC12NC(=O)[C@@H](Cc1ccccc1)NC(=O)[C@H](CC(=O)O)NC(=O)CNC(=O)[C@H](CCCNC(=N)N)NC2=O (stereo partly drawn) [III-3]
- inhibition of MMP-1 (MMP-1; 0.05 μM): about 60%
- inhibition of MMP-1 (MMP-1; 0.25 μM): about 80%
- inhibition of MMP-1 (MMP-1; 1.25 μM): ~87%
- inhibition of MMP-1 (MMP-1; 2.5 μM): ~91%
- IC50 (MMP-1): 20 nM
- MMP-1 Conc. (MMP-1; cyclopeptide 0.05 μM): 337.8 pg/mL
- MMP-1 Conc. (MMP-1; cyclopeptide 0.25 μM): 244.2 pg/mL
- MMP-1 Conc. (MMP-1; cyclopeptide 1.25 μM): 212.7 pg/mL
- MMP-1 Conc. (MMP-1; cyclopeptide 2.5 μM): 194.2 pg/mL
- MMP-1 Conc. (MMP-1; cyclopeptide 5 μM): 168.6 pg/mL

Compound: N=C(N)NCCC[C@@H]1NC(=O)C2(CCCCC2)NC(=O)[C@@H](Cc2ccccc2)NC(=O)[C@H](CC(=O)O)NC(=O)CNC1=O [III-5]
- Procollagen Type I (hs68 human fibroblasts [1]; cyclopeptide 0.0008 μM): 235 ng/mL
- Procollagen Type I (hs68 human fibroblasts [1]; cyclopeptide 0.004 μM): 225 ng/mL
- Procollagen Type I (hs68 human fibroblasts [1]; cyclopeptide 0.02 μM): 220 ng/mL
- Procollagen Type I (hs68 human fibroblasts [1]; cyclopeptide 0.1 μM): 208 ng/mL
- Procollagen Type I (hs68 human fibroblasts [1]; cyclopeptide 0.25 μM): 208 ng/mL
- Procollagen Type I (hs68 human fibroblasts [1]; cyclopeptide 0.5 μM): 184 ng/mL
- viability at 0.0008 µM ([3]; cyclopeptide 0.0008 μM): 92%
- viability at 0.004 µM ([3]; cyclopeptide 0.004 μM): 97%
- viability at 0.02 µM ([3]; cyclopeptide 0.02 μM): 100%
- viability at 0.1 µM ([3]; cyclopeptide 0.1 μM): 97%
- viability at 0.25 µM ([3]; cyclopeptide 0.25 μM): 99%
- viability at 0.5 µM ([3]; cyclopeptide 0.5 μM): 100%
